“And” between values parts separate entries of the source, which are not always exact repeats. Equal values may be shown once. Inconclusive results and toxic doses are left out. Residues, ends and D or L forms follow the SMILES beside them. *: point of attachment. Cbz = O=C(OCc1ccccc1)*; Bn = c1ccc(C*)cc1
Tested on: BDF1 mice, P388 leukemia ip, median survival T/C
Assay: NCI In Vivo Anticancer Drug Screen. Data for tumor model P388 Leukemia (intraperitoneal) in B6D2F1 (BDF1) mice
Settings: endpoint: median survival time, higher = longer survival
Outline: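 Antitumour effect was judged in vivo: survival in drug-treated mice, normalised to that of vehicle-dosed controls, gives the reported T/C.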

[1] = dose: 3.13 mg/kg/injection, schedule: Q01DX009 (ip), vehicle: saline with Tween-80
[2] = dose: 6.25 mg/kg/injection, schedule: Q01DX009 (ip), vehicle: saline with Tween-80
[3] = dose: 25.0 mg/kg/injection, schedule: Q01DX009 (ip), vehicle: saline with Tween-80
[4] = dose: 50.0 mg/kg/injection, schedule: Q01DX009 (ip), vehicle: saline with Tween-80
[5] = dose: 100.0 mg/kg/injection, schedule: Q01DX009 (ip), vehicle: saline with Tween-80
[6] = dose: 200.0 mg/kg/injection, schedule: Q01DX009 (ip), vehicle: saline with Tween-80
[7] = dose: 100.0 mg/kg/injection, schedule: Q01DX009 (ip), vehicle: Klucel (hydroxypropylcellulose) (HPC)
[8] = dose: 100.0 mg/kg/injection, schedule: Q04DX003 (ip), vehicle: Klucel (hydroxypropylcellulose) (HPC)
[9] = dose: 200.0 mg/kg/injection, schedule: Q01DX009 (ip), vehicle: Klucel (hydroxypropylcellulose) (HPC)
[10] = dose: 200.0 mg/kg/injection, schedule: Q04DX003 (ip), vehicle: Klucel (hydroxypropylcellulose) (HPC)
[11] = dose: 400.0 mg/kg/injection, schedule: Q01DX009 (ip), vehicle: Klucel (hydroxypropylcellulose) (HPC)
[12] = dose: 400.0 mg/kg/injection, schedule: Q04DX003 (ip), vehicle: Klucel (hydroxypropylcellulose) (HPC)
[13] = dose: 100.0 mg/kg/injection, schedule: Q04DX003 (ip), vehicle: saline with Tween-80
[14] = dose: 200.0 mg/kg/injection, schedule: Q04DX003 (ip), vehicle: saline with Tween-80
[15] = dose: 400.0 mg/kg/injection, schedule: Q04DX003 (ip), vehicle: saline with Tween-80
[16] = dose: 6.25 mg/kg/injection, schedule: Q01DX009 (ip), vehicle: saline
[17] = dose: 12.5 mg/kg/injection, schedule: Q01DX009 (ip), vehicle: saline
[18] = dose: 25.0 mg/kg/injection, schedule: Q01DX009 (ip), vehicle: saline
[19] = dose: 50.0 mg/kg/injection, schedule: Q01DX009 (ip), vehicle: saline
[20] = dose: 50.0 mg/kg/injection, schedule: Q04DX003 (ip), vehicle: saline
[21] = dose: 100.0 mg/kg/injection, schedule: Q01DX009 (ip), vehicle: saline
[22] = dose: 100.0 mg/kg/injection, schedule: Q04DX003 (ip), vehicle: saline
[23] = dose: 200.0 mg/kg/injection, schedule: Q04DX003 (ip), vehicle: saline
[24] = dose: 400.0 mg/kg/injection, schedule: Q04DX003 (ip), vehicle: saline
[25] = dose: 25.0 mg/kg/injection, schedule: Q04DX003 (ip), vehicle: saline with Tween-80
[26] = dose: 50.0 mg/kg/injection, schedule: Q04DX003 (ip), vehicle: saline with Tween-80

With `O=C1OC2(CCCCC2)OC(=O)C1=C/C=C/c1ccc([N+](=O)[O-])o1` the T/C [1] was 100 % of control, the T/C [2] was 98 % of control and the T/C (dose: 12.5 mg/kg/injection, schedule: Q01DX009 (ip), vehicle: saline with Tween-80) was 91 % of control and 121 % of control. For the same compound, the T/C [3] was 97 % of control and 99 % of control and the T/C [4] was 112 % of control.
With `c1ccc2c3c(ccc2c1)OCCOCCOc1ccc2ccccc2c1-3` the T/C [4] was 86 % of control, the T/C [5] was 88 % of control and the T/C [6] was 92 % of control.
With `CCCCCCCCCCCCc1c(C(OC)OC)[nH]c(=S)[nH]c1=O` the T/C [7] was 107 % of control, the T/C [8] was 104 % of control and the T/C [9] was 88 % of control. For the same compound, the T/C [10] was 100 % of control, the T/C [11] was 96 % of control and the T/C [12] was 100 % of control.
For `CCOC(=O)C(CCC(=O)OC)C1=NC(C)(C)CC(C)O1` (configuration not stated), the T/C (dose: 50.0 mg/kg/injection, schedule: Q01DX001 (ip), vehicle: saline sonified) was 104 % of control, the T/C (dose: 100.0 mg/kg/injection, schedule: Q01DX001 (ip), vehicle: saline sonified) was 100 % of control and the T/C (dose: 200.0 mg/kg/injection, schedule: Q01DX001 (ip), vehicle: saline sonified) was 100 % of control.
`COC(OC)c1nc(SC)[nH]c(=O)c1C[N+](C)(C)C` was tested, and the T/C [13] was 100 % of control, the T/C [14] was 100 % of control and the T/C [15] was 113 % of control.
`COc1ccc(/C=C/C(=O)c2ccc3c(c2)OCO3)cc1O` was tested, and the T/C (dose: 3.12 mg/kg/injection, schedule: Q01DX009 (ip), vehicle: saline) was 104 % of control and 106 % of control, the T/C [16] was 93 % of control and 104 % of control and the T/C [17] was 100 % of control. The T/C [18] was 94 % of control and 110 % of control, the T/C [19] was 101 % of control and 107 % of control and the T/C [20] was 106 % of control. For the same compound, the T/C [21] was 93 % of control and 96 % of control, the T/C [22] was 113 % of control and the T/C [23] was 104 % of control. For the same compound, the T/C [24] was 114 % of control.
With `C=C1C(=O)[C@]23C[C@H]1CC[C@H]2[C@@]12CO[C@@H](O)[C@@H]1C(C)(C)[C@@H](O)C[C@@H]2OC3=O` the T/C [1] was 112 % of control, the T/C [2] was 118 % of control and the T/C [3] was 117 % of control. The T/C [4] was 119 % of control and 121 % of control, the T/C [5] was 112 % of control and the T/C [6] was 120 % of control.
With `CC(OC1C(N)C(O)OC(CO)C1O)C(=O)O` (configuration not stated) the T/C (dose: 50.0 mg/kg/injection, schedule: Q01DX005 (ip), vehicle: saline) was 103 % of control, the T/C (dose: 100.0 mg/kg/injection, schedule: Q01DX005 (ip), vehicle: saline) was 109 % of control and the T/C (dose: 200.0 mg/kg/injection, schedule: Q01DX005 (ip), vehicle: saline) was 107 % of control.
For `O=C(NCCN1CC1)C(=O)NCCN1CC1`, the T/C (dose: 1.56 mg/kg/injection, schedule: Q04DX003 (ip), vehicle: saline with Tween-80) was 250 % of control, the T/C (dose: 3.12 mg/kg/injection, schedule: Q04DX003 (ip), vehicle: saline with Tween-80) was 173 % of control and the T/C (dose: 6.25 mg/kg/injection, schedule: Q04DX003 (ip), vehicle: saline with Tween-80) was 105 % of control.
With `C[C@@H]1C[C@@H]([C@@H](CC2CC(=O)NC(=O)C2)OC(=O)CC(=O)c2ccccc2)C(=O)[C@@H](C)C1` the T/C (dose: 11.0 mg/kg/injection, schedule: Q01DX009 (ip), vehicle: saline with Tween-80) was 120 % of control, the T/C [3] was 165 % of control and the T/C [25] was 109 % of control. The T/C (dose: 37.5 mg/kg/injection, schedule: Q01DX009 (ip), vehicle: saline with Tween-80) was 160 % of control, the T/C [4] was 95 % of control and the T/C [26] was 118 % of control.
In the case of `CCSC1(SCC)C(=O)OC2=C(CCCCCC2)C1N(C)C` (configuration not stated), the T/C [4] was 96 % of control, the T/C [5] was 99 % of control and the T/C [6] was 99 % of control.
For `O=S(=O)(O)C1CCCCC1O` (configuration not stated), the T/C (dose: 100.0 mg/kg/injection, schedule: Q04DX002 (ip), vehicle: saline with Tween-80) was 98 % of control and the T/C (dose: 200.0 mg/kg/injection, schedule: Q04DX002 (ip), vehicle: saline with Tween-80) was 101 % of control.
For `COc1ccc(C(C#N)CC(=O)c2ccc(OC)c(OCc3ccccc3)c2)cc1OC` (configuration not stated), the T/C [16] was 90 % of control, the T/C [17] was 95 % of control and the T/C [18] was 91 % of control. For the same compound, the T/C (dose: 25.0 mg/kg/injection, schedule: Q04DX003 (ip), vehicle: saline) was 114 % of control, the T/C [19] was 99 % of control and the T/C [20] was 96 % of control. For the same compound, the T/C [21] was 90 % of control, the T/C [22] was 96 % of control and the T/C (dose: 200.0 mg/kg/injection, schedule: Q01DX009 (ip), vehicle: saline) was 86 % of control. For the same compound, the T/C [23] was 107 % of control, the T/C (dose: 400.0 mg/kg/injection, schedule: Q01DX009 (ip), vehicle: saline) was 95 % of control and the T/C [24] was 100 % of control.
For `CC1=C(O)C(=O)C(C2=C(O)C(=O)C(C)=C(O)C2=O)=C(O)C1=O`, the T/C (dose: 0.63 mg/kg/injection, schedule: Q01DX010 (ip), vehicle: saline) was 100 % of control, the T/C (dose: 1.25 mg/kg/injection, schedule: Q01DX010 (ip), vehicle: saline) was 100 % of control and the T/C (dose: 62.5 micrograms/kg/injection, schedule: Q01DX001 (ip), vehicle: saline) was 118 % of control. For the same compound, the T/C (dose: 125.0 micrograms/kg/injection, schedule: Q01DX001 (ip), vehicle: saline) was 90 % of control, the T/C (dose: 250.0 micrograms/kg/injection, schedule: Q01DX001 (ip), vehicle: saline) was 100 % of control and the T/C (dose: 500.0 micrograms/kg/injection, schedule: Q01DX001 (ip), vehicle: saline) was 100 % of control. For the same compound, the T/C (dose: 1000.0 micrograms/kg/injection, schedule: Q01DX001 (ip), vehicle: saline) was 100 % of control.
In the case of `c1ccc(CNc2ncncc2-c2ccccc2)cc1`, the T/C [4] was 98 % of control, the T/C [5] was 105 % of control and the T/C [6] was 99 % of control.
With `Cc1cnc(=S)n(-c2ccccc2)c1` the T/C (dose: 12.5 mg/kg/injection, schedule: Q04DX003 (ip), vehicle: saline with Tween-80) was 95 % of control, the T/C [25] was 104 % of control and the T/C [26] was 98 % of control.
With `CN1CCN(C2CCCCc3ccccc32)CC1` (configuration not stated) the T/C [25] was 104 % of control, the T/C [26] was 113 % of control and the T/C [13] was 109 % of control.
`CC(C)CC(NC(=O)C1CCCN1C(=O)C(CSCc1ccccc1)NC(=O)OCc1ccccc1)C(=O)NCC(N)=O` (configuration not stated) (Cbz-C(Bn)PLG-NH2; configuration not given here) was tested, and the T/C [8] was 99 % of control, the T/C [10] was 95 % of control and the T/C [12] was 87 % of control.
For `CC1(c2cccs2)NC(=O)NC1=O` (configuration not stated), the T/C [3] was 104 % of control, the T/C [4] was 96 % of control and 124 % of control and the T/C [5] was 112 % of control and 111 % of control. The T/C [13] was 100 % of control, the T/C [6] was 101 % of control and the T/C [14] was 104 % of control and 98 % of control. The T/C [15] was 100 % of control and 90 % of control.
`Cc1c(NS(=O)(=O)c2ccccc2)c(C)c(NS(=O)(=O)c2ccccc2)c(C)c1NS(=O)(=O)c1ccccc1` was tested, and the T/C [4] was 88 % of control, the T/C [5] was 91 % of control and the T/C [6] was 88 % of control.
With `S=c1[nH]nc2ccccn12` the T/C [4] was 102 % of control, the T/C [5] was 100 % of control and the T/C [6] was 102 % of control.
For `CC(=O)Nc1ccc2c(c1)C(N)c1ccccc1-2` (configuration not stated), the T/C [4] was 100 % of control, the T/C [5] was 104 % of control and the T/C (dose: 133.0 mg/kg/injection, schedule: Q01DX009 (ip), vehicle: Klucel (hydroxypropylcellulose) (HPC)) was 95 % of control. For the same compound, the T/C [9] was 105 % of control, the T/C [6] was 87 % of control and the T/C (dose: 300.0 mg/kg/injection, schedule: Q01DX009 (ip), vehicle: Klucel (hydroxypropylcellulose) (HPC)) was 100 % of control.
`CCCCCCCC(=O)Nc1c(C)cc(C)cc1C` was tested, and the T/C [13] was 109 % of control, the T/C [14] was 100 % of control and the T/C [15] was 109 % of control.
For `CS(=O)CC(O)(c1ccccc1)c1cccs1` (configuration not stated), the T/C [4] was 100 % of control, the T/C [5] was 93 % of control and the T/C [6] was 100 % of control.
For `C/C(=N\N=C(/C)c1ccc(Cl)cc1)c1ccc(Cl)cc1`, the T/C [7] was 95 % of control, the T/C [9] was 90 % of control and the T/C [11] was 113 % of control.
